Reference: patent publication US8263587B2, “Benzoxazepine compounds, their preparation and use” (Piramal Healthcare Limited, priority 2006, dated 2012)
Values belong to the compound of their own block, whether it stands above or below them.

Legend:
3T3-L1 pre-adipocytes = experiment: Potentiation of insulin-stimulated lipogenesis in 3T3-L1 adipocytes; assay type: cell-based; details: over insulin control = 1
Experimental: 3T3-L1 pre-adipocytes were grown to confluence in 25 ml culture flasks in DMEM (Dulbecco's Modified Eagle's Medium, with 25 mM glucose) containing 10% fetal calf serum (FCS) and antibiotics in a humidified atmosphere of 5% CO2 and 95% air at 37° C. The medium was changed every 2-3 days. The cells were trypsinised at confluency using 0.25% trypsin and transferred to another flask.
For the assay, cells were grown in 24 well plates. Induction of differentiation was done when the cells had grown to confluency with DMEM containing 5% FCS and supplemented with 0.5 mM IBMX (3-Isobutyl-1-methylxanthine), 0.5 μM DEX (dexamethasone) and 1 μg/ml insulin. […] The medium was changed three times, each at an interval of 2 days. On the day of termination of medium changes, lipogenesis assay was performed.
3T3-L1 cells were grown to confluency in 24 well plates. […] On the day of termination of the assay the cells were incubated in […] KRHB (Krebs-Ringer Hepes buffer) for 2 hr at 37° C. in a CO2 incubator. This was replaced with fresh KRHB with 0.1 mM glucose containing 100 nM insulin, test compound or insulin plus test compound. Lipogenesis was initiated by the addition of 20 μl of 50 μCi/ml [^3H]-D-Glucose to each well and incubation for 90 min at 37° C. in a CO2 incubator. The reaction was terminated by aspirating the medium from each well and washing the cells rapidly 3 times with ice-cold PBS (phosphate buffered saline). 500 μl of 0.2 N NaOH was added to lyse the cells. 450 μl was aliquoted into scintillation vials and scintillation cocktail added. The vials were read in Liquid Scintillation Counter. Results are expressed as fold activation of the standard or test compound over the control (Table 2).

isolated rat hepatocytes [1] = experiment: LDH leakage from isolated rat hepatocytes; assay type: cell-based
Experimental: (§1) The assay was done in three groups: basal, control and test. The test compounds were added to the vials at different concentrations. The isolated hepatocytes were added to the vials and they were incubated at 37° C. for 15 min. After 15 min, 5 mM fructose (precursor for gluconeogenesis) was added to the control and test group. Vials were again incubated at 37° C. for one hour with constant shaking (80 cycles/min.). Incubation was terminated by centrifuging the reaction mixture at 3000 rpm for 5 min. The supernatant was used for determination of both glucose and lactate dehydrogenase (LDH) (Table 1).
The LDH activity is measured, by the method described in Meth. Enz. Ana. 3, 118-125, 1984, the disclosure of which is incorporated by reference for the teaching of the method, as the amount of pyruvate consumed by continuously monitoring the decrease in absorbance due to oxidation of NADH (Nicotinamide Adenine Dinucleotide-reduced form) at 339 nm.

isolated rat hepatocytes [2] = experiment: Inhibition of gluconeogenesis in isolated rat hepatocytes; assay type: cell-based; details: 5 mM fructose
Experimental: Assay protocol for determination of inhibition of gluconeogenesis by compounds in isolated rat hepatocytes:
Hepatocytes were isolated by collagenase digestion of perfused livers from male Wistar rats fasted overnight according to the method described in J. Cell. Science., 56, 233-244, 1982, the disclosure of which is incorporated by reference for the teaching of the method.
as §1
An active compound would decrease the amount of glucose formed, which is read at 520 nm by glucose oxidase-peroxidase method.

[3] = system: STZ induced diabetic rats; experiment: Streptozotocin-induced diabetes in rats, blood glucose; assay type: in vivo, male Wistar rats; details: for Percent reduction in blood glucose: STZ diabetic rats
Experimental: Diabetes was induced in male Wistar rats by intraperitoneal (i.p.) injection of streptozotocin (STZ) (60 mg/kg) dissolved in 0.05 M citrate buffer, pH 4.6. Plasma glucose levels were estimated 48 hours after STZ administration. […] The rats were divided into […] (n=8 in each group): the first (control) group consisted of untreated animals, the second group had diabetic animals and the third and fourth groups consisted of diabetic animals treated with the test compounds (50 and 100 mg/kg respectively). Test compounds were administered p.o. for 8 days to STZ induced diabetic rats (180-200 g). Blood glucose was measured on day 0, 3 and 8 (Table 3).

hPPARγ = molecular target: T1, hPPARγ (Homo sapiens, UniProt P37231); experiment: hPPARγ transactivation in cell-based assay (CV-1 cells, luciferase); parameters: Emax: dose or concentration left out as unconfirmed; details: for PPARγ (Fold activation at 1 μM): CV-1 cells transfected with hPPARγ
T1 construct: expressed in transfected cells; host or cells: CV-1 cells
T1 sequence (P37231 1-505): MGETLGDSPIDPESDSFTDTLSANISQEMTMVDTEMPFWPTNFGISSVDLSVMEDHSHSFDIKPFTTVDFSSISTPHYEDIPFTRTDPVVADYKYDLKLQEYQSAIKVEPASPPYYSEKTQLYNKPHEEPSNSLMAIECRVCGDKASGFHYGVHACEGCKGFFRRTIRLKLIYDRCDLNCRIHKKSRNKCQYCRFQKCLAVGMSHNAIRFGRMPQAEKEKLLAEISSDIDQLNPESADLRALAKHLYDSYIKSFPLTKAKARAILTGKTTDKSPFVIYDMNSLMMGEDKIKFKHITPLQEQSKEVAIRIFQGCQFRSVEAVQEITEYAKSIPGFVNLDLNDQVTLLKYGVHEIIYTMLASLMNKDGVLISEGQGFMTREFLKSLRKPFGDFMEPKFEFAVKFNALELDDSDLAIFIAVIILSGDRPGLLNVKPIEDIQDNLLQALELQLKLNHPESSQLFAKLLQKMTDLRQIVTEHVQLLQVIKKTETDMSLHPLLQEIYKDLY
Experimental: (§2) Cell based transcription assay was employed to identify hPPAR γ/α agonists. CV-1 cells were maintained in MEM (minimum essential medium) containing 10% FBS (fetal bovine serum). Cells were seeded at a density of 80,000 cells/well in a 24-well plate one day prior to transfection. CV-1 cells were transiently transfected with hPPAR γ/α using Lipofectamine 2000. […] Receptor activation by ligands leads to activation of luciferase expression, which was measured after 15-16 h incubation. The cells were washed with PBS, lysed, and luciferase activity measured in a microplate luminometer. […] Both compounds were synthesized in-house. Maximum activation with the reference agonists was defined as 100%. Receptor activation by test compounds is presented as percentage of maximum activation caused by the respective reference agonists in Table 4(a), Table 4(b) and Table 4(c).

hPPARα = molecular target: T2, hPPARα (Homo sapiens, UniProt Q07869); experiment: hPPARα transactivation in cell-based assay (CV-1 cells, luciferase)
T2 construct: expressed in transfected cells; host or cells: CV-1 cells
T2 sequence (Q07869 1-468): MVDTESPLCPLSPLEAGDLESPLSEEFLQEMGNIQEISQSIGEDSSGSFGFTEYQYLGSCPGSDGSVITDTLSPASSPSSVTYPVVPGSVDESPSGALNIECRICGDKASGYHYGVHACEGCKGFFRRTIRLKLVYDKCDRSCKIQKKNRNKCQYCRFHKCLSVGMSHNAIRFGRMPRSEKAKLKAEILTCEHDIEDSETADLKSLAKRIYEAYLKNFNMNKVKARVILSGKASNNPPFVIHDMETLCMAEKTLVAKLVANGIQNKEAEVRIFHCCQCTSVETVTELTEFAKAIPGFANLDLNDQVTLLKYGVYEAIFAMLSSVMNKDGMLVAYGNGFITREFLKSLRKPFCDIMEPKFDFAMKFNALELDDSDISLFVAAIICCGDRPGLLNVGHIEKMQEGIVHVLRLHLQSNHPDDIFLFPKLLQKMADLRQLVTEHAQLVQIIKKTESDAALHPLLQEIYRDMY
Experimental: as §2

[4] = with insulin, concentration not given
[5] = 10 μM, isolated rat hepatocytes
[6] = 25 μM, isolated rat hepatocytes
[7] = 50 μM, isolated rat hepatocytes
[8] = 100 μM, isolated rat hepatocytes
[9] = Rattus norvegicus, Hepatocyte, 10 μM, read-out: Gluconeogenesis (glucose production) % inhibition
[10] = Rattus norvegicus, Hepatocyte, read-out: Gluconeogenesis (glucose production) % inhibition
[11] = one entry 'No leakage' for all concentrations tested of the compound (up to 100 μM)
[12] = Rattus norvegicus, Hepatocyte, 50 μM, read-out: Gluconeogenesis (glucose production) % inhibition
[13] = Rattus norvegicus, Hepatocyte, 100 μM, read-out: Gluconeogenesis (glucose production) % inhibition
[14] = CV-1, read-out: PPARγ activation as percentage of maximum activation by rosiglitazone

SMILES: COC(=O)C(Cc1ccc2c(c1)CN(c1ccccn1)CCO2)C(=O)OC [Compound of Example 2]
- Fold stimulation of insulin-stimulated lipogenesis (3T3-L1 pre-adipocytes; [4]): 2 fold

- LDH % leakage (isolated rat hepatocytes [1]; [5]): 5%
- LDH % leakage (isolated rat hepatocytes [1]; [6]): 5%
- LDH % leakage (isolated rat hepatocytes [1]; [7]): 6%
- LDH % leakage (isolated rat hepatocytes [1]; 75 μM, isolated rat hepatocytes): 7%
- LDH % leakage (isolated rat hepatocytes [1]; [8]): 7%
SMILES: O=C1NC(=O)C(=Cc2ccc3c(c2)CN(c2ccccn2)CCO3)S1 [Compound of Example 3, 5-(4-Pyridin-2-yl-2,3,4,5-tetrahydro-benzo[f][1,4]oxazepin-7-ylmethylene)-thiazolidine-2,4-dione]
- Fold stimulation of insulin-stimulated lipogenesis (3T3-L1 pre-adipocytes; 1 μM with insulin): 1.2 fold
- Fold stimulation of insulin-stimulated lipogenesis (3T3-L1 pre-adipocytes; 10 μM with insulin): 1.4 fold
- Fold stimulation of insulin-stimulated lipogenesis (3T3-L1 pre-adipocytes; 25 μM with insulin): 1.7 fold
- Gluconeogenesis (glucose production) % inhibition (isolated rat hepatocytes [2]; 50 μM): 42%
- Gluconeogenesis (glucose production) % inhibition (isolated rat hepatocytes [2]; 100 μM): 74%
- inhibition at 10 µM (isolated rat hepatocytes [2]; [9]): 10%
- inhibition at 25 µM (isolated rat hepatocytes [2]; [10]): 36%
- inhibition at 75 µM (isolated rat hepatocytes [2]; Rattus norvegicus, Hepatocyte, 75 μM, read-out: Gluconeogenesis (glucose production) % inhibition): 51%

SMILES: O=C1NC(=O)C(Cc2ccc3c(c2)CN(c2ccccn2)CCO3)S1 (centres unmarked) [Compound of Example 4, 5-(4-Pyridin-2-yl-2,3,4,5-tetrahydro-benzo[f][1,4]oxazepin-7-yl-methyl)-thiazolidine-2,4-dione]
- melting point: 180 to 181 °C
- Fold stimulation of insulin-stimulated lipogenesis (3T3-L1 pre-adipocytes; 10 μM with insulin): 2 fold
- Fold stimulation of insulin-stimulated lipogenesis (3T3-L1 pre-adipocytes; 100 μM with insulin): 2.3 fold
- LDH % leakage (isolated rat hepatocytes [1]; [11]): No
- inhibition at 10 µM (isolated rat hepatocytes [2]; [9]): 27%
- inhibition at 50 µM (isolated rat hepatocytes [2]; [12]): 35%
- inhibition at 100 µM (isolated rat hepatocytes [2]; [13]): 57%

SMILES: O=C(O)/C=C\C(=O)O.O=C1NC(=O)C(Cc2ccc3c(c2)CN(c2ccccn2)CCO3)S1 (centres unmarked) [Compound of Example 5, 5-(4-Pyridine-2-yl-2,3,4,5-tetrahydro-benzo[f][1,4]oxazepin-7-ylmethyl)-thiazolidine-2,4-dione maleate]
- Percent reduction in blood glucose ([3]; 50 mpk p.o. for 8 days): 28%
- Blood glucose ([3]; 50 mpk p.o., Day 0, STZ diabetic rats): 16.8 ± 0.9 μmols/ml
- Blood glucose ([3]; 50 mpk p.o., Day 3, STZ diabetic rats): 15.9 ± 3.0 μmols/ml
- Blood glucose ([3]; 50 mpk p.o., Day 8, STZ diabetic rats): 14.1 ± 1.99 μmols/ml
- Percent reduction in blood glucose ([3]; 100 mpk p.o. for 8 days): 31%
- Blood glucose ([3]; 100 mpk p.o., Day 0, STZ diabetic rats): 17.0 ± 2.0 μmols/ml
- Blood glucose ([3]; 100 mpk p.o., Day 3, STZ diabetic rats): 16.0 ± 1.09 μmols/ml
- Blood glucose ([3]; 100 mpk p.o., Day 8, STZ diabetic rats): 13.0 ± 0.9 μmols/ml
- PPARγ (Fold activation at 1 μM) (hPPARγ): 1.8 fold
- Emax (hPPARγ; [14]): 12%

SMILES: O=C1NC(=O)C(=Cc2ccc3c(c2)CN(c2nc4ccccc4o2)CCO3)S1 [Compound of Example 6, 5-(4-Benzooxazol-2-yl-2,3,4,5-tetrahydro-benzo[f][1,4]oxazepin-7-ylmethylene)-thiazolidine-2,4-dione]
- Fold stimulation of insulin-stimulated lipogenesis (3T3-L1 pre-adipocytes; 10 μM with insulin): 1.4 fold

- PPARγ (Fold activation at 1 μM) (hPPARγ): 0.7 fold
- Emax at 1 µM (hPPARγ; [14]): 9%
- PPARα (Fold activation at 20 μM) (hPPARα; 20 μM, CV-1 cells transfected with hPPARα): 1.5 fold
- Emax at 20 µM (hPPARα; CV-1, read-out: PPARα activation as percentage of maximum activation by Wy-14643): 47%
- LDH % leakage (isolated rat hepatocytes [1]; [11]): No
SMILES: O=C1NC(=O)C(Cc2ccc3c(c2)CN(c2nc4ccccc4o2)CCO3)S1 (centres unmarked) [Compound of Example 7, 5-(4-Benzooxazol-2-yl-2,3,4,5-tetrahydro-benzo[f][1,4]oxazepin-7-yl-methyl)-thiazolidine-2,4-dione]
- inhibition at 3 µM (isolated rat hepatocytes [2]; Rattus norvegicus, Hepatocyte, 3 μM, read-out: Gluconeogenesis (glucose production) % inhibition): 12%
- inhibition at 30 µM (isolated rat hepatocytes [2]; Rattus norvegicus, Hepatocyte, 30 μM, read-out: Gluconeogenesis (glucose production) % inhibition): 19%
- inhibition at 100 µM (isolated rat hepatocytes [2]; [13]): 50%

SMILES: O=C(O)/C=C\C(=O)O.O=C1NC(=O)C(=Cc2ccc3c(c2)CN(c2ccccn2)CCO3)S1 [Compound of Example 8, 5-(4-Pyridin-2-yl-2,3,4,5-tetrahydro-benzo[f][1,4]oxazepin-7-ylmethylene)-thiazolidine-2,4-dione maleate]
- melting point: 224 to 226 °C
- Fold stimulation of insulin-stimulated lipogenesis (3T3-L1 pre-adipocytes; [4]): 1.8 fold
- LDH % leakage (isolated rat hepatocytes [1]; [11]): No
- Gluconeogenesis (glucose production) % inhibition (isolated rat hepatocytes [2]; 10 μM): 9%
- Gluconeogenesis (glucose production) % inhibition (isolated rat hepatocytes [2]; 50 μM): 13%
- Gluconeogenesis (glucose production) % inhibition (isolated rat hepatocytes [2]; 100 μM): 45%

- LDH % leakage (isolated rat hepatocytes [1]; 5 μM, isolated rat hepatocytes): 9%
- LDH % leakage (isolated rat hepatocytes [1]; [5]): 9%
- LDH % leakage (isolated rat hepatocytes [1]; [6]): 10%
- LDH % leakage (isolated rat hepatocytes [1]; [7]): 11%
- LDH % leakage (isolated rat hepatocytes [1]; [8]): 15%
SMILES: CN(CCOc1ccc(CC2SC(=O)NC2=O)cc1)c1ccccn1 (centres unmarked) [Rosiglitazone, reference compound]
- inhibition at 5 µM (isolated rat hepatocytes [2]; Rattus norvegicus, Hepatocyte, 5 μM, read-out: Gluconeogenesis (glucose production) % inhibition): 11%
- inhibition at 10 µM (isolated rat hepatocytes [2]; [9]): 28%
- inhibition at 25 µM (isolated rat hepatocytes [2]; [10]): 43%
- inhibition at 50 µM (isolated rat hepatocytes [2]; [12]): 57%
- inhibition at 100 µM (isolated rat hepatocytes [2]; [13]): 68%
